The values that follow are results of earlier work, collected in patent US9446052B2, “Composition for prevention of nausea or vomiting” (SAMYANG BIOPHARMACEUTICALS CORPORATION, priority 2010, dated 2016).

The conditions of this data set: pH 6-7.5.

For `Cc1nccn1CC1CCc2c(c3ccccc3n2C)C1=O` (stereo not shown) [ondansetron], the Solubility in water entry is “not soluble”.
